Assay type in all cases: cell-based
In one assay the target is T1, sfRON (Homo sapiens, UniProt Q04912).
T1 construct: expressed in transfected cells; host or cells: HeLa (transient transfection, Lipofectamine-2000, sfRON-pcDNA plasmid)
T1 sequence (Q04912 913-1400 limits assumed): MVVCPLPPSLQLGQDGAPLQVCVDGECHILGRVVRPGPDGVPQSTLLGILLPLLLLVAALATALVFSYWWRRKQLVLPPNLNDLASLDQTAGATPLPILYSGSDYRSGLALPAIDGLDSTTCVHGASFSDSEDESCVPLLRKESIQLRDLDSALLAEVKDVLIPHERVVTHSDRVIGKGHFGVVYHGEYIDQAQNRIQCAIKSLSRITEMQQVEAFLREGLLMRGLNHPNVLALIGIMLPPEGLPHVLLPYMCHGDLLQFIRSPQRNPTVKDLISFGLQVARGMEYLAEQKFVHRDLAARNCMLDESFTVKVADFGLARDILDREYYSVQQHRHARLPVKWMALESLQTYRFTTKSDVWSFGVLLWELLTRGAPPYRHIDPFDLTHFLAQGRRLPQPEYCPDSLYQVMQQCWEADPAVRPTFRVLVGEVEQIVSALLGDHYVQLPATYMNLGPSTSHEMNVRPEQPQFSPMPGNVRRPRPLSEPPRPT
In words: sfRON cell mechanistic assay (HeLa), phosphorylated RON levels. As to conditions: sfRON transfected HeLa cells, four hours incubation, at least duplicate experiments, read-out: sfRON mech IC50. How it is done: The cellular activity of the compounds of the present invention against RON may be determined by the following procedure. HeLa cells were plated in Falcon 3072 96-well plates in growth media (DMEM, 10% FBS, 1% L-glutamine) at a density of 10000 cells/well and incubated at 37° C., 5% CO2 overnight. The following day, cells were transfected with 0.2 μg sfRON-pcDNA plasmid DNA with 0.5 μL Lipofectamine-2000 per well in the presence of 50 μL OPTI-MEM, incubated at 37° C., 5% CO2 overnight. Costar 3915 96-well assay plates were coated with rabbit Anti-RON antibody at 2.0 μg/mL, sealed, and incubated overnight at 4° C. On the third day, coated plates were washed with PBS and blocked with 3% BSA. For the sfRON transfected cells, one-tenth volume of a 10× concentration of compounds was added to the wells in a 6-point dilution series. The dilution series was composed of an initial 1:5 dilution of a 10 mM DMSO stock solution of compound in DMSO, followed by a 1:10 dilution in growth media, for a final DMSO concentration on cells of 0.5%. Control wells were treated with 0.5% DMSO. The typical range of dilution was 10 μM to 3 nM. Once compound was added to the cells, plates were incubated for four hours at 37° C., 5% CO2. Plates were then washed in PBS, and lysed in triton-based lysis buffer. Lysates were transferred to the blocked capture plates. The phosphorylated RON levels were measured by incubating with a Goat polyclonal antibody against phosphorylated RON ([pYpY1238/1239]) followed by an anti-Goat antibody conjugated to HRP. Signal was measured on a Wallac Victor plate reader with luminance. The DMSO signal of the control wells was defined as 100% and the percent of inhibition of phosphorylated RON was expressed as percent of control. IC50 values were determined from the percent of control data using a standard four-parameter model.
The IC50 values of exemplary compounds of the present invention determined in a sfRON cell mechanistic assay using the HeLa cell line according to the procedures described herein in at least duplicate experiments are abbreviated as follows and are shown in Table 3: A, IC50≦0.1 μM; B, 0.1 μM<IC50≦0.5 μM; C, 0.5 μM<IC50≦1 μM; D, IC50>1 μM; ND, not determined. The Example # of Table 3 corresponds to the compound example number as illustrated in the Examples section.

In another assay the test system is MKN45 cells. Kind of assay: MKN45 cell proliferation assay (CellTiter-Glo). The conditions noted are these: Homo sapiens, MKN-45, 72 h; MKN45 cell line, 3 days incubation, at least duplicate experiments; read-out: Prolif. IC50. The procedure: The effect of inhibitors on the proliferation of MKN45 cells was determined using the following protocol. MKN45 cells were plated in Corning 3917 96-well white tissue culture treated plates in growth medium (RPMI, 10% FCS) at a density of 5000 cells/well in a total volume of 135 μL and incubated at 37° C., 5% CO2, 95% humidity overnight. The following day, one-tenth volume of a 10× concentration of compounds was added to the wells in an 8-point dilution series. The dilution series was composed of an initial 1:5 dilution of a 10 mM stock of compound in DMSO, followed by serial 1:4 dilutions in DMSO, then a 1:20 dilution in growth medium prior to the 1:10 dilution into the cell plate. Final DMSO concentration on the cells was 0.1%, there were control wells treated with both 0.1% DMSO and no DMSO. The typical dilution range is 10 μM to 0.6 nM. Once the compound was added to the cells, plates were incubated for 3 days at 37° C., 5% CO2 at 95% humidity. On the third day, after allowing all cells and reagents to come to room temperature, 25 μL of CellTiter-Glo reagent (Promega # G7573) was added to the wells. Plates were shaken on a platform for 10 minutes prior to reading luminescence for 0.1 seconds. The signal of the control wells was taken as 100% growth and growth inhibition was expressed as percent of control. IC50 values were determined from the percent of control data using a standard four-parameter model.
The IC50 values of exemplary compounds of the present invention determined in a cell proliferation assay using the MKN45 cell line according to the procedures described herein in at least duplicate experiments are abbreviated as follows and are shown in Table 1: A, IC50≦0.1 μM; B, 0.1 μM<IC50≦0.5 μM; C, 0.5 μM<IC50≦2 μM; D, IC50>2 μM; ND, not determined. The Example # of Table 1 corresponds to the compound example number as illustrated in the Experimental section above.
Treatment of this cell line with a selective MET inhibitor led to induction of apoptosis and inhibition of proliferation, whereas non-MET-amplified cell lines were not affected. Smolen et al., Proc. Natl. Acad. Sci. USA, 103(7):2316-2321 (2006). This cell line is thus “driven” by MET, and antiproliferative effects correlate very well with the inhibition of MET phosphorylation so that the cell proliferation IC50 values can be used as surrogate for the MET cell mechanistic IC50 values. Under the assay conditions described herein, the IC50 values correlate nearly 1:1.

For the next assay, the target named is T2, MET (Homo sapiens, UniProt P08581).
T2 construct: endogenous in cells; host or cells: MKN45
In words: MET cell mechanistic assay (MKN45), phosphorylated MET levels. The conditions noted are these: MKN45 cell line, four hours incubation, at least duplicate experiments, read-out: MET mech IC50. The procedure:
The cellular activity of the compounds of the present invention against MET may be determined by the following procedure. MKN45 cells were plated in Falcon 3072 96-well plates in growth media (RPMI, 10% FBS, 1% L-glutamine) at a density of 5000 cells/well and incubated at 37° C., 5% CO2 overnight. The following day, one-tenth volume of a 10× concentration of compounds was added to the wells in a 6-point dilution series. The dilutions series was composed of an initial […] in DMSO, followed by a […] in growth media, for a final DMSO concentration on cells of 0.5%. Control wells were treated with 0.5% DMSO. The typical range of dilution was 10 μM to 3 nM. Once compound was added to the cells, plates were incubated for four hours at 37° C., 5% CO2. Plates were then washed in PBS, and lysed in triton-based lysis buffer. Lysates were transferred to a precoated capture plate made by Biosource (Cat # KHO0281). The phosphorylated MET levels were measured by incubating with a rabbit polyclonal antibody against phosphorylated MET ([pYpYpY1230/1234/1235]) followed by an anti-rabbit antibody conjugated to HRP. Signal was measured on a Wallac Victor plate reader at 450 nm. The DMSO signal of the control wells was defined as 100% and the percent of inhibition of phosphorylated MET was expressed as percent of control. IC50 values were determined from the percent of control data using a standard four-parameter model.
The IC50 values of exemplary compounds of the present invention determined in a MET cell mechanistic assay using the MKN45 cell line according to the procedures described herein in at least duplicate experiments are abbreviated as follows and are shown in Table 2: A, IC50≦0.1 μM; B, 0.1 μM<IC50≦0.5 μM; C, 0.5 μM<IC50≦2 μM; D, IC50>2 μM; ND, not determined. The Example # of Table 2 corresponds to the compound example number as illustrated in the Experimental section above.

pIC50: −log10 of the molar value.

T2 sequence (P08581 25-1390): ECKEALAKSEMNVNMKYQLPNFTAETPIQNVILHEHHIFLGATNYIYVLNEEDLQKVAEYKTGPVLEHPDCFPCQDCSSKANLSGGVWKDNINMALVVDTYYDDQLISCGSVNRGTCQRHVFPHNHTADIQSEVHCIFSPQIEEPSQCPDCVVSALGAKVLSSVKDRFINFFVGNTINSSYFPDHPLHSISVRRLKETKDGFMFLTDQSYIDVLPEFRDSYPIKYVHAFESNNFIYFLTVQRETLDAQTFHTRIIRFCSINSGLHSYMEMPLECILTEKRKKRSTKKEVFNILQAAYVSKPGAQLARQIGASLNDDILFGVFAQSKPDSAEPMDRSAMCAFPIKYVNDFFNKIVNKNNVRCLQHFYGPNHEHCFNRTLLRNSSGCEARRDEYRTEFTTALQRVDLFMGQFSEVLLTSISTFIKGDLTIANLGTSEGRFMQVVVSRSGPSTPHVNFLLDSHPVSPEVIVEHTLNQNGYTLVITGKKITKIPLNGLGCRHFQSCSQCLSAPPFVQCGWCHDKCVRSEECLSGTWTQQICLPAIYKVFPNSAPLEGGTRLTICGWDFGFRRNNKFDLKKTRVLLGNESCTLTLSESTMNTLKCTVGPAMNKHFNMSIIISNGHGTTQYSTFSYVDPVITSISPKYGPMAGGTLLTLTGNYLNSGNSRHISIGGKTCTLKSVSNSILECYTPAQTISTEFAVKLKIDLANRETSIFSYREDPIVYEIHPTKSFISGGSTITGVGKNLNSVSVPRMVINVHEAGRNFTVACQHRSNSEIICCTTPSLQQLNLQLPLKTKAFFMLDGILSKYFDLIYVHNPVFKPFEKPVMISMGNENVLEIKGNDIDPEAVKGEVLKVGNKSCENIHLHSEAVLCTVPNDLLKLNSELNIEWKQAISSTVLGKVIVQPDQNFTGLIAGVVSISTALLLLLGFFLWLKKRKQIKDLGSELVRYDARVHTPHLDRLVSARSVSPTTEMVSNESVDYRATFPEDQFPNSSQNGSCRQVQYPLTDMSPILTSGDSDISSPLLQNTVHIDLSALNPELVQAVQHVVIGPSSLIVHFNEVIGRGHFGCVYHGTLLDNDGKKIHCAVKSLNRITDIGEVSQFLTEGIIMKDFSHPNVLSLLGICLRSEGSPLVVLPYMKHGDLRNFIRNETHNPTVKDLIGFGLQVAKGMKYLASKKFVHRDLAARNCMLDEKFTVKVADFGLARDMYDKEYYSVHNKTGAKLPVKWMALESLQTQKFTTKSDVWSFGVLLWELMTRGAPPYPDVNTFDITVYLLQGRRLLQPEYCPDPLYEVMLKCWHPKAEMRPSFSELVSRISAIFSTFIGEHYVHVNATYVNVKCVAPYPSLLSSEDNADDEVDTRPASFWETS

In the case of `COc1ccc(F)c(Cl)c1[C@@H](C)c1n[nH]c2ncc(-c3cnn([C@H]4CC[C@H](O)CC4)c3)cc12` [Example 10, trans-4-(4-{3-[(1R)-1-(2-Chloro-3-fluoro-6-methoxyphenyl)ethyl]-1H-pyrazolo[3,4-b]pyridin-5-yl}-1H-pyrazol-1-yl)cyclohexanol], the negative-log IC50 (pIC50) was 6.30 to 7.00 on sfRON and at least 7.00 in the assay on MKN45 cells. With `COc1ccc(F)c(Cl)c1[C@H](C)c1n[nH]c2ncc(-c3cnn([C@H]4CC[C@H](O)CC4)c3)cc12` [Example 11, trans-4-(4-{3-[(1S)-1-(2-Chloro-3-fluoro-6-methoxyphenyl)ethyl]-1H-pyrazolo[3,4-b]pyridin-5-yl}-1H-pyrazol-1-yl)cyclohexanol], the negative logarithm of the IC50 (pIC50) in the assay on MKN45 cells was below 5.70. Consider `C[C@H](c1c(Cl)ccc(F)c1Cl)n1ccc2ncc(-c3cnn([C@H]4CC[C@H](O)CC4)c3)cc21` [Example 7, trans-4-(4-{1-[(1R)-1-(2,6-Dichloro-3-fluorophenyl)ethyl]-1H-pyrrolo[3,2-b]pyridin-6-yl}-1H-pyrazol-1-yl)cyclohexanol], for which the negative logarithm of the IC50 (pIC50) at sfRON and with MKN45 cells was 6.30 to 7.00 each time. As for `C[C@H](c1c(Cl)ccc(F)c1Cl)n1ccc2ncc(-c3cnn(C4CCNCC4)c3)cc21` [Example 5, 1-[(1R)-1-(2,6-Dichloro-3-fluorophenyl)ethyl]-6-[1-(piperidin-4-yl)-1H-pyrazol-4-yl]-1H-pyrrolo[3,2-b]pyridine], the negative logarithm of the IC50 (pIC50) at sfRON is 6.00 to 6.30; in the assay with MKN45 cells it was at least 7.00. Regarding `COc1ccc(F)c(Cl)c1[C@@H](C)c1n[nH]c2ncc(-c3cnn(C[C@H](O)CO)c3)cc12` [Example 13, (2S)-3-(4-{3-[(1R)-1-(2-chloro-3-fluoro-6-methoxyphenyl)ethyl]-1H-pyrazolo[3,4-b]pyridin-5-yl}-1H-pyrazol-1-yl)propane-1,2-diol], the pIC50 in the assay on MKN45 cells is 6.30 to 7.00. Take `COc1ccc(F)c(Cl)c1[C@@H](C)c1n[nH]c2ncc(-c3cnn(C4CCNCC4)c3)cc12` [Example 12, 3-[(1R)-1-(2-chloro-3-fluoro-6-methoxyphenyl)ethyl]-5-[1-(piperidin-4-yl)-1H-pyrazol-4-yl]-1H-pyrazolo[3,4-b]pyridine]: the negative logarithm of the IC50 (pIC50) in the assay with MKN45 cells is at least 7.00. As to `COc1ccc(F)c(Cl)c1[C@@H](C)c1n[nH]c2ncc(-c3cnn(C)c3)cc12` [Example 14, 3-[(1R)-1-(2-chloro-3-fluoro-6-methoxyphenyl)ethyl]-5-(1-methyl-1H-pyrazol-4-yl)-1H-pyrazolo[3,4-b]pyridine], the negative-log IC50 (pIC50) in the assay on MKN45 cells was 6.30 to 7.00.

Turning to `CC(c1c(Cl)ccc(F)c1Cl)c1c[nH]c2nnc(-c3cnn(C)c3)cc12` (stereo not shown) [Example 15, 5-[1-(2,6-Dichloro-3-fluorophenyl)ethyl]-3-(1-methyl-1H-pyrazol-4-yl)-7H-pyrrolo[2,3-c]pyridazine], the pIC50 with MKN45 cells was below 5.70. `C[C@H](c1c(Cl)ccc(F)c1Cl)n1ccc2ncc(-c3cnn(C4CCN(C=O)CC4)c3)cc21` [Example 6, 4-(4-{1-[(1R)-1-(2,6-Dichloro-3-fluorophenyl)ethyl]-1H-pyrrolo[3,2-b]pyridin-6-yl}-1H-pyrazol-1-yl)piperidine-1-carbaldehyde]: the negative logarithm of the IC50 (pIC50) on sfRON is 6.00 to 6.30; in the assay on MKN45 cells, 6.30 to 7.00.

With “7-[(2,6-dichloro-3-fluorophenyl)methoxymethyl]-2-(1-piperidin-4-yl-1H-pyrazol-4-yl)-5H-pyrrolo[2,3-b]pyrazine [Example 1]”, the pIC50 on MET is 6.30 to 7.00.

In the case of `COc1ccc(F)c(Cl)c1C(C)c1n[nH]c2ncc(-c3cnn([C@H]4CC[C@H](O)CC4)c3)cc12` (relative stereo) [Example 9, trans-4-(4-{3-[1-(2-Chloro-3-fluoro-6-methoxyphenyl)ethyl]-1H-pyrazolo[3,4-b]pyridin-5-yl}-1H-pyrazol-1-yl)cyclohexanol], in the assay with MKN45 cells, the pIC50 was at least 7.00. For the molecule `C[C@H](c1c(Cl)ccc(F)c1Cl)n1ccc2ncc(-c3cnn(C)c3)cc21` [Example 4, 1-[(1R)-1-(2,6-dichloro-3-fluorophenyl)ethyl]-6-(1-methyl-1H-pyrazol-4-yl)-1H-pyrrolo[3,2-b]pyridine], the figures for the negative-log IC50 (pIC50) at sfRON and in the assay on MKN45 cells were below 6.00 and 5.70 to 6.30, respectively. As for `C[C@H](c1c(Cl)ccc(F)c1Cl)n1ccc2ncc(-c3cnn(C[C@H](O)CO)c3)cc21` [Example 8, (2S)-3-(4-{1-[(1R)-1-(2,6-Dichloro-3-fluorophenyl)ethyl]-1H-pyrrolo[3,2-b]pyridin-6-yl}-1H-pyrazol-1-yl)propane-1,2-diol], the results for the negative-log IC50 (pIC50) on sfRON and in the assay with MKN45 cells were 6.00 to 6.30 and 6.30 to 7.00, respectively.

A word on the pIC50: it is the IC50 on a negative log10 scale, so that one unit is a factor of ten.

The values are drawn from US20130072495A1, “FUSED BICYCLIC KINASE INHIBITORS” (OSI Pharmaceuticals, LLC, priority 2010, published 2013).
